Reference: the CheMixHub viscosity set

Assay: xn = mol fraction of the nth substance listed

CC1CCCCC1 + CCCCO
303.15 K, 101.33 kPa
Details	viscosity [mPa·s]
x1 = 0.1	1.825
x1 = 0.2604	1.383
x1 = 0.42	1.072
x1 = 0.5788	0.854
x1 = 0.7414	0.719
x1 = 0.9013	0.643
x2 = 0.0995	0.6691
x2 = 0.2019	0.7305
x2 = 0.3088	0.8105
x2 = 0.3988	0.89
x2 = 0.5011	0.9898
x2 = 0.5989	1.122
x2 = 0.6911	1.272
x2 = 0.7839	1.45
x2 = 0.9179	1.858

CCCNCCC + CCCCO
viscosity [mPa·s]
Details	303.15 K	313.15 K
101 kPa, x1 = 0.01005	2.225	–
101 kPa, x1 = 0.01919	2.196	–
101 kPa, x1 = 0.03366	2.165	–
101 kPa, x1 = 0.0409	2.145	–
101 kPa, x1 = 0.04956	2.121	–
101 kPa, x1 = 0.05853	2.098	–
101 kPa, x1 = 0.07021	2.064	–
101 kPa, x1 = 0.07906	2.04	–
101 kPa, x1 = 0.09184	2.006	–
101.33 kPa, x1 = 0.0954	2.038	1.621
101.33 kPa, x1 = 0.1904	1.797	1.426
101.33 kPa, x1 = 0.2859	1.567	1.252
101.33 kPa, x1 = 0.4163	1.299	1.031
101.33 kPa, x1 = 0.5205	1.106	0.8851
101.33 kPa, x1 = 0.615	0.9506	0.7697
101.33 kPa, x1 = 0.7107	0.8177	0.6675
101.33 kPa, x1 = 0.8108	0.6968	0.5735
101.33 kPa, x1 = 0.8924	0.6105	0.5037

CCOC(=O)c1ccccc1 + CCCCO
viscosity [mPa·s], 101.3 kPa
Details	x1 = 0.0664	x1 = 0.1379	x1 = 0.2152	x1 = 0.299	x1 = 0.3901	x1 = 0.4897	x1 = 0.5988	x1 = 0.719	x1 = 0.852
303 K	2.029	2.002	1.967	1.935	1.902	1.874	1.839	1.809	1.78
308 K	1.87	1.837	1.814	1.783	1.754	1.713	1.679	1.646	1.618
313 K	1.599	1.582	1.567	1.559	1.54	1.52	1.499	1.484	1.47
318 K	1.444	1.439	1.426	1.42	1.407	1.4	1.39	1.381	1.372
323 K	1.324	1.318	1.309	1.301	1.29	1.284	1.274	1.269	1.259

CCCNCCC + CCCCOCCO
viscosity [mPa·s], 100 kPa
Details	298.15 K	303.15 K	308.15 K
x2 = 0.05	0.558	0.519	0.489
x2 = 0.1003	0.62	0.576	0.538
x2 = 0.1502	0.691	0.64	0.597
x2 = 0.1999	0.775	0.709	0.662
x2 = 0.2999	0.982	0.888	0.826
x2 = 0.3998	1.254	1.118	1.035
x2 = 0.5001	1.549	1.37	1.255
x2 = 0.5999	1.887	1.654	1.51
x2 = 0.6997	2.216	1.935	1.752
x2 = 0.7999	2.527	2.18	1.97
x2 = 0.8996	2.731	2.356	2.141
x2 = 0.9499	2.787	2.437	2.209

CCOC(C)(C)C + CCCCOCCO
viscosity [mPa·s], 101 kPa
Details	293.15 K	298.15 K	303.15 K
x1 = 0.0499	2.901	2.558	2.239
x1 = 0.1	2.603	2.314	2.038
x1 = 0.1511	2.336	2.092	1.85
x1 = 0.2007	2.107	1.899	1.687
x1 = 0.2489	1.91	1.731	1.545
x1 = 0.2999	1.725	1.573	1.412
x1 = 0.3421	1.589	1.455	1.312
x1 = 0.4018	1.417	1.305	1.186
x1 = 0.45	1.296	1.198	1.094
x1 = 0.5002	1.183	1.097	1.007
x1 = 0.5521	1.079	1.004	0.925
x1 = 0.5998	0.993	0.926	0.857
x1 = 0.6538	0.906	0.847	0.786
x1 = 0.6987	0.84	0.788	0.734
x1 = 0.7501	0.773	0.727	0.679
x1 = 0.8	0.714	0.673	0.632
x1 = 0.8492	0.661	0.626	0.59
x1 = 0.8997	0.612	0.581	0.55
x1 = 0.9493	0.57	0.541	0.514

CCCNCCC + CCCCOCCOCCO
viscosity [mPa·s], 100 kPa
Details	298.15 K	303.15 K	308.15 K
x2 = 0.05007	0.5938	0.5507	0.5178
x2 = 0.1002	0.6906	0.6377	0.5959
x2 = 0.1502	0.8054	0.7394	0.6889
x2 = 0.2	0.9457	0.8562	0.7964
x2 = 0.3001	1.339	1.183	1.093
x2 = 0.3999	1.79	1.571	1.437
x2 = 0.4999	2.311	1.998	1.819
x2 = 0.5997	2.952	2.519	2.248
x2 = 0.7	3.584	3.042	2.71
x2 = 0.7999	4.119	3.507	3.124
x2 = 0.8998	4.617	3.926	3.5
x2 = 0.9491	4.857	4.132	3.683

CC(=O)[O-].CCCC[NH2+]CCO + CCCCn1cc[n+](C)c1.COP(=O)([O-])OC
viscosity [mPa·s], 101 kPa
Details	x1 = 0.1014	x1 = 0.2979	x1 = 0.4067	x1 = 0.4989	x1 = 0.8011	x1 = 0.8913
293.15 K	730.5	–	–	502.5	741.5	–
298.15 K	–	392.5	359.5	–	–	632.5

CC(=O)[O-].CCCC[NH2+]CCO + CCCCn1cc[n+](C)c1.O=S(=O)([N-]S(=O)(=O)C(F)(F)F)C(F)(F)F
Details	viscosity [mPa·s]
308.15 K, 101 kPa, x1 = 0.901	343.5

CC(C)O + CCCO
viscosity [mPa·s], 101 kPa
Details	293.15 K	298.15 K	303.15 K	313.15 K	323.15 K
x2 = 0.1001	2.369	–	1.776	1.349	1.048
x2 = 0.172	–	2.066	–	–	–
x2 = 0.2006	2.359	–	1.777	1.36	1.066
x2 = 0.2956	2.344	–	1.773	1.365	1.077
x2 = 0.33	–	1.997	–	–	–
x2 = 0.3999	2.322	–	1.766	1.368	1.084
x2 = 0.4993	2.3	–	1.758	1.368	1.086
x2 = 0.5	–	2.02	–	–	–
x2 = 0.6	2.278	–	1.75	1.367	1.088
x2 = 0.665	–	1.985	–	–	–
x2 = 0.6973	2.258	–	1.744	1.368	1.089
x2 = 0.754	–	1.985	–	–	–
x2 = 0.7993	2.238	–	1.739	1.368	1.091
x2 = 0.826	–	1.972	–	–	–
x2 = 0.8994	2.219	–	1.734	1.369	1.096

CCOC(=O)[C@@H](O)[C@H](O)C(=O)OCC + CCCO
viscosity [mPa·s], 101 kPa
Details	x1 = 0.1	x1 = 0.2	x1 = 0.2999	x1 = 0.3999	x1 = 0.5001	x1 = 0.5999	x1 = 0.7	x1 = 0.7996	x1 = 0.9
293.15 K	3.256	5.15	8.204	13.19	21	32.75	52.88	84.67	135.1
298.15 K	2.832	4.359	6.759	10.53	16.09	24.37	37.73	57.79	88.2
303.15 K	2.467	3.7	5.586	8.415	12.64	18.48	27.67	40.91	60.18
308.15 K	2.164	3.17	4.671	6.886	10.06	14.35	20.86	29.93	42.64
313.15 K	1.913	2.731	3.92	5.661	8.093	11.3	16.05	22.45	31.15
318.15 K	1.694	2.385	3.38	4.782	6.694	9.164	12.71	17.37	23.52
323.15 K	1.52	2.108	2.94	4.092	5.623	7.561	10.28	13.77	18.27
